Values belong to the molecule of their own block, whether it stands above or below them. The source made the active and inactive calls.
Key:
Caspase-9 = Caspase-9 (Homo sapiens, UniProt P55211); assay: inhibitors of purified CASP9 protease – biochemical, fluorescence, plate reader, cherry-picked samples, selectivity assay for caspase-6 inhibitor project, dose response (AID 743293)
[1] = reduction of Shn3 3'UTR-driven luciferase in osteoblasts – cell-based, Clone20 osteoblasts, firefly luciferase, cherry-picked, dose response (AID 624132); type: functional;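 note: firefly luciferase luminescence from reporter carrying the Shn3 3'UTR in osteoblasts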
Mu-type opioid receptor = Mu-type opioid receptor (Homo sapiens, UniProt P35372); assay: (§1) Counterscreen for agonists of heterodimerization of the mu 1 (OPRM1) and delta 1 (OPRD1) opioid receptors: Luminescence-based cell-based high throughput dose response assay to identify agonists of OPRM1 homodimerization.; type: functional
[2] = target: RNA-editing ligase 1, mitochondrial (Trypanosoma brucei brucei, UniProt P86926); assay: inhibition of trypanosome RNA editing ligase – biochemical, fluorescence, Trypanosoma brucei, dose response (AID 1117295); type: functional
[3] = target: Delta-type opioid receptor (Homo sapiens, UniProt P41143); assay: as §1, with “of OPRD1” for “of OPRM1”, “homodimerization. [Related pubchem assays (depositor defined):AID504326, AID504355, AID504692, AID504904, AID504905]” for “homodimerization.”; type: functional
Chain of Delta-type opioid receptor (P41143 whole entry): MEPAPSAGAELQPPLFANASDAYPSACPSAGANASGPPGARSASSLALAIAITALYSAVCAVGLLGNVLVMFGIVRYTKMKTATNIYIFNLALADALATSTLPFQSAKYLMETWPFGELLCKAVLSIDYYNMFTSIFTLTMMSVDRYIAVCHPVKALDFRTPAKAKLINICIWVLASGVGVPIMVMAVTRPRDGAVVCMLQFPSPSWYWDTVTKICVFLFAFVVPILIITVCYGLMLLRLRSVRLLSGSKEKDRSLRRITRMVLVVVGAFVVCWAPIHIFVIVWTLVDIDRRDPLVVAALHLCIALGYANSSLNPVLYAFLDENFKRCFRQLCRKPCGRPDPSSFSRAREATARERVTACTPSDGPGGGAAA

Cysteine protease ATG4B = Cysteine protease ATG4B (Homo sapiens, UniProt Q9Y4P1); type: functional;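 note: Fluorescence-based dose-response confirmation assay measuring inhibition of ATG4B activity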
Chain of Cysteine protease ATG4B (Q9Y4P1 whole entry): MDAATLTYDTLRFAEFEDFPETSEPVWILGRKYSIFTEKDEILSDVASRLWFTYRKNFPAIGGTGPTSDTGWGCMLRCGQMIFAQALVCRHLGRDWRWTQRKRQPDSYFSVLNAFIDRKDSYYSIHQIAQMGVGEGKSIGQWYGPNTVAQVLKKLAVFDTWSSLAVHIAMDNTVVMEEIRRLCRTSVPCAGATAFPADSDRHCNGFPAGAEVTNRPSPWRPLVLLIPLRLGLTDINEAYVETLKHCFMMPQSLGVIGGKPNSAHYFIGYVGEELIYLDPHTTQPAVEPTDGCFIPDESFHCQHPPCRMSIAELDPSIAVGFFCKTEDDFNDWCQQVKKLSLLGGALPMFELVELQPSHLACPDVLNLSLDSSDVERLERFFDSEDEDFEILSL

Caspase-8 = Caspase-8 (Homo sapiens, UniProt Q14790); assay: inhibitors of purified CASP8 protease – biochemical, Z-IETD-R110 fluorescence, cherry-picked samples, selectivity assay for caspase-6 inhibitor project, dose response (AID 743294)
Chain of Caspase-8 (Q14790 217-374 limits assumed): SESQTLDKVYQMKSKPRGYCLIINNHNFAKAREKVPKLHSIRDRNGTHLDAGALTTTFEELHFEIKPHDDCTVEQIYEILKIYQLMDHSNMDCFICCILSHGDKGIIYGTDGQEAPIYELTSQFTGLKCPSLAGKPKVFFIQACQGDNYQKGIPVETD
Chain of Caspase-8 (Q14790 385-479 limits assumed): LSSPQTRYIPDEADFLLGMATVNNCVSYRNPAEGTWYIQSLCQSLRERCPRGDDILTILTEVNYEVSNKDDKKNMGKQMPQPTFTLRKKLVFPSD

[4] = target: T1, Sentrin-specific protease 6 (Homo sapiens, UniProt Q9GZR1); type: functional;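 note: Luminescence-based dose-response confirmatory assay of SENP6 inhibition, following up an ultra-high-throughput screen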
T1 sequence (Q9GZR1 whole entry): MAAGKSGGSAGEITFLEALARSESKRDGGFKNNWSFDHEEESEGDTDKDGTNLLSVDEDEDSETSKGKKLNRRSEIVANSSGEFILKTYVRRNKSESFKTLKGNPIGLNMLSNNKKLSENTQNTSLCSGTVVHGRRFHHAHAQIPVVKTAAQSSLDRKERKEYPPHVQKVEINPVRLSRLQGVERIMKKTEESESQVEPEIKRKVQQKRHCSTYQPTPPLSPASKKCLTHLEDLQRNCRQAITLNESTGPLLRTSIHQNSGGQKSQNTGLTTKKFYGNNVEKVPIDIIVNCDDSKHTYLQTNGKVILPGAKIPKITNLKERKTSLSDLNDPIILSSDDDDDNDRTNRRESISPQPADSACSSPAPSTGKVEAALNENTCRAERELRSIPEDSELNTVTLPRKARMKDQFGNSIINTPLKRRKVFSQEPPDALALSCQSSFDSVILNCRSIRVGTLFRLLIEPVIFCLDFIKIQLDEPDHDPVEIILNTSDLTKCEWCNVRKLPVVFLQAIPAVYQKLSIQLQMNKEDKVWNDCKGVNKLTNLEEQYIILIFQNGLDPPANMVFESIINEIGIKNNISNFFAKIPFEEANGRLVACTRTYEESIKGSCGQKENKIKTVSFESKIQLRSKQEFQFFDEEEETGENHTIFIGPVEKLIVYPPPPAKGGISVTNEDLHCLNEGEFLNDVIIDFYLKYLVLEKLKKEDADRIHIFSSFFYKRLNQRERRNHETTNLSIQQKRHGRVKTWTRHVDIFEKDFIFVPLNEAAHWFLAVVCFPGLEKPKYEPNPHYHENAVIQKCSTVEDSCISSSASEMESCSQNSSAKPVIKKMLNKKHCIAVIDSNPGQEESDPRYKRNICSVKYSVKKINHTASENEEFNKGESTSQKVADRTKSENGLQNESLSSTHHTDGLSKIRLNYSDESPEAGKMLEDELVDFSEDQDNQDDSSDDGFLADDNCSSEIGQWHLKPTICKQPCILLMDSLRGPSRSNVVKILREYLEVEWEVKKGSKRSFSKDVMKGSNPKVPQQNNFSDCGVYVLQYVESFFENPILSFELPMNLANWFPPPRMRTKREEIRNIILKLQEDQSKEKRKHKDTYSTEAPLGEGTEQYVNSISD

[5] = target: Serine/threonine-protein kinase 3 (Homo sapiens, UniProt Q13188); type: functional;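 note: measured as one member of a kinome-wide kinase panel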
[6] = target: Tyrosine-protein kinase JAK2 (Homo sapiens, UniProt O60674); type: functional;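 note: JAK2 tested as one member of a kinase panel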
[7] = target: cAMP-dependent protein kinase catalytic subunit alpha (Homo sapiens, UniProt P17612); type: functional
[8] = target: Tyrosine-protein kinase Lck (Homo sapiens, UniProt P06239); type: functional;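 note: lck was assayed as one member of a kinase panel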
[9] = target: Interleukin-1 receptor-associated kinase 1 (Homo sapiens, UniProt P51617); type: functional;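 note: IRAK1 tested as one member of a kinome panel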
[10] = target: MAP kinase-activated protein kinase 5 (Homo sapiens, UniProt Q8IW41); type: functional;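 note: measured as one member of a kinome panel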
Chain of MAP kinase-activated protein kinase 5 (Q8IW41 whole entry): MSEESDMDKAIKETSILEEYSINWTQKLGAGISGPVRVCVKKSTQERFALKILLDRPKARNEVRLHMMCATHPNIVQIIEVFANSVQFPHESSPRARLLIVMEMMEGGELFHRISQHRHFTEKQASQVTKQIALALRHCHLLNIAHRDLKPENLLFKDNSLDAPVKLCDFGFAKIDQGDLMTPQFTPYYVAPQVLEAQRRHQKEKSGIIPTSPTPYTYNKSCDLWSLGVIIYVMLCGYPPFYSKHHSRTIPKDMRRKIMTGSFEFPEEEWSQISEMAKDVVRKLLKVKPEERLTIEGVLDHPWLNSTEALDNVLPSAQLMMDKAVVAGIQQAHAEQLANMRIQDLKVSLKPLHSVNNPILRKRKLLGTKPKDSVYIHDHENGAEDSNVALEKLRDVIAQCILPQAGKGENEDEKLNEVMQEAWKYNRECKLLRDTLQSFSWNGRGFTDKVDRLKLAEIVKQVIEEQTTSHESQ

[11] = target: Homeodomain-interacting protein kinase 4 (Homo sapiens, UniProt Q8NE63); type: functional
[12] = target: STE20-like serine/threonine-protein kinase (Homo sapiens, UniProt Q9H2G2); type: functional
Chain of STE20-like serine/threonine-protein kinase (Q9H2G2 whole entry, canonical isoform): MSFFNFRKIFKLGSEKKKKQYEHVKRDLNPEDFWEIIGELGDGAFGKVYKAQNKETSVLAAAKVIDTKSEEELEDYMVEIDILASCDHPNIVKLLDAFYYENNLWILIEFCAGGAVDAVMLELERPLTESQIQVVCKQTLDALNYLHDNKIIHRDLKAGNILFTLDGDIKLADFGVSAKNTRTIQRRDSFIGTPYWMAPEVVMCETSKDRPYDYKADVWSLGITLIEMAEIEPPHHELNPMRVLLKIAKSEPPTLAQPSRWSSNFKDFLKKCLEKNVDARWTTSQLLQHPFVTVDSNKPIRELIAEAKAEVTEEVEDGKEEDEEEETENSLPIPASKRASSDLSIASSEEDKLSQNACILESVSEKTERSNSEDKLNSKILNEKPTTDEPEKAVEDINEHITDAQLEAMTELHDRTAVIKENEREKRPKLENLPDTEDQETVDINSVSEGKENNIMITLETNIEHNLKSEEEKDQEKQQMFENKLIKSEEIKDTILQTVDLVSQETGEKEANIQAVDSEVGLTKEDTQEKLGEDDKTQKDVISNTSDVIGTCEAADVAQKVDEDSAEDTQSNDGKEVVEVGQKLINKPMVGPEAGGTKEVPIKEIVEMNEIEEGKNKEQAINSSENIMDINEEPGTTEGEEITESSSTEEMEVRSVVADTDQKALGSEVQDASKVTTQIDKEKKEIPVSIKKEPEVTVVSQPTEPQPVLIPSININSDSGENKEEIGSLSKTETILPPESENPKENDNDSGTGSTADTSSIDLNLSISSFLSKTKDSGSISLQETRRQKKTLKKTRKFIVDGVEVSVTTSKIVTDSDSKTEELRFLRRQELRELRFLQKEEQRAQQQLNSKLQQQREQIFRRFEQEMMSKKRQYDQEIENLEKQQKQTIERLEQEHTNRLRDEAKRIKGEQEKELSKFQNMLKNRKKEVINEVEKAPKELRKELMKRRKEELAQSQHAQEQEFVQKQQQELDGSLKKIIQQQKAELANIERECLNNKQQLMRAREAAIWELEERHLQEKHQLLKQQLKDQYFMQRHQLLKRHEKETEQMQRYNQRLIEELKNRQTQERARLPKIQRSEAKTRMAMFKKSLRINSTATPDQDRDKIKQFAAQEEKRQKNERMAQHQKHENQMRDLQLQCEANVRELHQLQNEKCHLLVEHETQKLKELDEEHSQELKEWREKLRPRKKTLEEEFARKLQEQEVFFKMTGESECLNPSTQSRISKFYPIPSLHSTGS

[13] = target: Casein kinase I isoform gamma-1 (Homo sapiens, UniProt Q9HCP0); type: functional;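 note: measured as the CSNK1G1 member of a kinome profiling panel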
[14] = target: Casein kinase I isoform delta (Homo sapiens, UniProt P48730); type: functional;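 note: measured as one member (CSNK1D) of a kinome panel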
Chain of Casein kinase I isoform delta (P48730 whole entry, canonical isoform): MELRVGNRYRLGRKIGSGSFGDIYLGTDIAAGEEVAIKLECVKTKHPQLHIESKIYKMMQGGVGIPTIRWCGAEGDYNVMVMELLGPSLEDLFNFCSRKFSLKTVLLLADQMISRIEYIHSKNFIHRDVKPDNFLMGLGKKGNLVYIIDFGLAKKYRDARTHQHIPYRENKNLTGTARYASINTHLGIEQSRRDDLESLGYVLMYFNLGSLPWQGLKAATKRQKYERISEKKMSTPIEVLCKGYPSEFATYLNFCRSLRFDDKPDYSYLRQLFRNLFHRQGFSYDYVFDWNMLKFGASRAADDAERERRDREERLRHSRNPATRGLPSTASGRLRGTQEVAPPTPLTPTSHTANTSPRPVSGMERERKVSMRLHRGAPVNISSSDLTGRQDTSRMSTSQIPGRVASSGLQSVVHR

[15] = target: Inhibitor of nuclear factor kappa-B kinase subunit beta (Homo sapiens, UniProt O14920); type: functional
Chain of Inhibitor of nuclear factor kappa-B kinase subunit beta (O14920 whole entry): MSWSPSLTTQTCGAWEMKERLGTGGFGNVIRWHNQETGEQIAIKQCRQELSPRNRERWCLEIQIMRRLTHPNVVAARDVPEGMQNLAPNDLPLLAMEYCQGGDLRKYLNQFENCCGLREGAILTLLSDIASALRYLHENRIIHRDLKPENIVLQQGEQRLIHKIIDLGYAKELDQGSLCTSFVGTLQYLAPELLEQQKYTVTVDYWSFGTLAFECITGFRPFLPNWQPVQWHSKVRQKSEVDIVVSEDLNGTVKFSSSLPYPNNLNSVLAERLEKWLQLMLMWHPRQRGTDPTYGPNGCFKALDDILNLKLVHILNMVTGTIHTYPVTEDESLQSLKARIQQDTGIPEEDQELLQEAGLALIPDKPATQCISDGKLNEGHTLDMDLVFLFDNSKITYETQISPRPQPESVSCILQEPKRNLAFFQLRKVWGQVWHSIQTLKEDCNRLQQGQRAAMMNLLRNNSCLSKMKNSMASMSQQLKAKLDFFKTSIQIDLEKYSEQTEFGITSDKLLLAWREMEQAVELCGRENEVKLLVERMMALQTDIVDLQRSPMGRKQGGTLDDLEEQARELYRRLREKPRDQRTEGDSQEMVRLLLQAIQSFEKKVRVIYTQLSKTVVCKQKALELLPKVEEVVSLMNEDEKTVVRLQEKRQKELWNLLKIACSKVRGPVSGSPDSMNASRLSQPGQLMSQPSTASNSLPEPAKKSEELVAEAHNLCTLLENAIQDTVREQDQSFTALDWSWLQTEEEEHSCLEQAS

[16] = target: Tyrosine-protein kinase JAK3 (Homo sapiens, UniProt P52333); type: functional
Chain of Tyrosine-protein kinase JAK3 (P52333 whole entry): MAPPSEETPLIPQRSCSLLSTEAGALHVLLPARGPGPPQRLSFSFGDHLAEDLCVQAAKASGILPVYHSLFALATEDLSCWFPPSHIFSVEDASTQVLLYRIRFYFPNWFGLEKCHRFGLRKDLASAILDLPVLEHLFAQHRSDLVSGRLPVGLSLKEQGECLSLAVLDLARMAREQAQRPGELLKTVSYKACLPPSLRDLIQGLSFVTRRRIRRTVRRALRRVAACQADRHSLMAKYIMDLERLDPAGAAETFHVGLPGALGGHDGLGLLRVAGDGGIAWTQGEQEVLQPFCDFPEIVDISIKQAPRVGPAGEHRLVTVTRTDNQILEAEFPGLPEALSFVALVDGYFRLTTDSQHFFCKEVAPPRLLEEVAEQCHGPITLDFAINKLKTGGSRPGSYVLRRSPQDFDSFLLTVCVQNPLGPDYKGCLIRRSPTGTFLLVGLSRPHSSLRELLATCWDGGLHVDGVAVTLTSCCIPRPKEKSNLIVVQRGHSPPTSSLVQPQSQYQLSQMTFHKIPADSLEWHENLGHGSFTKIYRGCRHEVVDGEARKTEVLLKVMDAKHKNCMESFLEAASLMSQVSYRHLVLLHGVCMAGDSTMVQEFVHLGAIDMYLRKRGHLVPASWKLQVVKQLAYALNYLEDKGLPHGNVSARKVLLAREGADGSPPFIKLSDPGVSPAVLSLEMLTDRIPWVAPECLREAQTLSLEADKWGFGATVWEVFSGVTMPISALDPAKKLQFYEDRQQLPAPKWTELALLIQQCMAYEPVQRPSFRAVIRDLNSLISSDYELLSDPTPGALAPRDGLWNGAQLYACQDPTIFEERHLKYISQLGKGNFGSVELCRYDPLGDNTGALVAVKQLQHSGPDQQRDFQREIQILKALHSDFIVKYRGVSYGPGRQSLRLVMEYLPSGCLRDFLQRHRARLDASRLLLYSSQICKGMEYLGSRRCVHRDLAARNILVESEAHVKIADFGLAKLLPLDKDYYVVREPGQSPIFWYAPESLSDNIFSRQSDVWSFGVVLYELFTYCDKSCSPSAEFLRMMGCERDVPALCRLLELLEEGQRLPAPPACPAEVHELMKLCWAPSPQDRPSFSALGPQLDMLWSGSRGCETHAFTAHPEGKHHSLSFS

[17] = target: Serine/threonine-protein kinase DCLK1 (Homo sapiens, UniProt O15075); type: functional;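 note: affinity for DCLK1 (listed as DCAMKL1) measured as one member of a kinome-wide kinase profiling panel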
[18] = target: T2, Testis-specific serine/threonine-protein kinase 2 (Homo sapiens, UniProt Q96PF2); type: functional;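 note: part of the Navigating the Kinome panel, target entry STK22B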
T2 sequence (Q96PF2 whole entry): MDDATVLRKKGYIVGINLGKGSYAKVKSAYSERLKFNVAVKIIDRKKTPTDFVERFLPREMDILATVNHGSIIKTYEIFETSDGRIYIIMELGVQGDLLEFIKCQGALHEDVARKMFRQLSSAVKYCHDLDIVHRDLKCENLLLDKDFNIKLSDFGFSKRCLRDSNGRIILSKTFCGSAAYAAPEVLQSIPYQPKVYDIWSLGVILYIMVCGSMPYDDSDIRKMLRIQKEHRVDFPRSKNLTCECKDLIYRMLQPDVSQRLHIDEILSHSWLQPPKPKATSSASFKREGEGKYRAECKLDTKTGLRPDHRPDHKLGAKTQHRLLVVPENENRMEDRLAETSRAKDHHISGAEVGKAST

Structure (SMILES): CCCc1nc2c(=O)n(C)c(=O)nc-2n(C)n1
AC50 (Caspase-9): 0.214 µM (active)
AC50 [1]: 2.17 µM (active)
EC50 (Mu-type opioid receptor): > 92.5 µM (inactive)
IC50 [2]: 0.494 µM (active)
EC50 [3]: > 92.5 µM (inactive)
IC50 (Cysteine protease ATG4B): 2.84 µM (active)
AC50 (Caspase-8): 0.31 µM (active)

IC50 [4]: 11.6 µM (active)
Structure (SMILES): CC(=O)c1ccc(NC2=C(N3CCOCC3)C(=O)c3ccccc3C2=O)cc1

Ki [5]: 0.2 µM (active)
Ki [6]: 1.26 µM (active)
Ki [7]: > 7.94 µM (inactive)
Ki [8]: 2 µM (active)
Ki [9]: > 7.94 µM (inactive)
Ki [10]: 0.0631 µM (active)
Ki [11]: > 7.94 µM (inactive)
Ki [12]: 0.0126 µM (active)
Ki [13]: > 6.31 µM (inactive)
Ki [14]: > 7.94 µM (inactive)
Ki [15]: > 3.16 µM (inactive)
Ki [16]: 0.2 µM (active)
Ki [17]: > 10 µM (inactive)
Ki [18]: 0.0631 µM (active)
Structure (SMILES): COc1cc2ncn(-c3cc(OCc4ccccc4C(F)(F)F)c(C(N)=O)s3)c2cc1OC [GW843682X]

Source: ChEMBL document CHEMBL1201862, “PubChem BioAssay data set” (2004)
